Assay results: ChEMBL document CHEMBL5512646, “Synthesis, kinase inhibition and anti-leukemic activities of diversely substituted indolopyrazolocarbazoles” (Eur J Med Chem, 2024)

Legend:
MOLM-13 = experiment: Cytotoxicity against human MOLM-13 cells assessed as induction of cell death incubated for 24 hrs by WST-1 assay; details: MOLM-13, 24 h
HCT-116 = experiment: Cytotoxicity against human HCT-116 cells assessed as inhibition of cell growth incubated for 24 hrs by MTT assay; type: functional, cell-based; details: HCT-116, 24 h
[1] = biological target: Serine/threonine-protein kinase pim-1 (Homo sapiens, UniProt P11309)
Chain of Serine/threonine-protein kinase pim-1 (P11309 whole entry): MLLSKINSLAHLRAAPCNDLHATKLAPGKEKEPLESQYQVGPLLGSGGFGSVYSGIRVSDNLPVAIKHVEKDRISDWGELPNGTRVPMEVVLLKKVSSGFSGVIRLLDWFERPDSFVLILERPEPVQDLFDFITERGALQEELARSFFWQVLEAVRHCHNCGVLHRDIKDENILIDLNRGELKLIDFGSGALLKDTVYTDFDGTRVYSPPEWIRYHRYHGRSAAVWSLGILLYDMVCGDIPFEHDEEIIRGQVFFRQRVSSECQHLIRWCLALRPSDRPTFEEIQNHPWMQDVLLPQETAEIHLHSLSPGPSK
Description: Inhibition of PIM-1 (unknown origin)

[2] = biological target: MAP/microtubule affinity-regulating kinase 3 (Homo sapiens, UniProt P27448); experiment: Inhibition of human MARK3 using ATPKKLNRTLSVA as substrate in presence of ATP
Chain of MAP/microtubule affinity-regulating kinase 3 (P27448 whole entry): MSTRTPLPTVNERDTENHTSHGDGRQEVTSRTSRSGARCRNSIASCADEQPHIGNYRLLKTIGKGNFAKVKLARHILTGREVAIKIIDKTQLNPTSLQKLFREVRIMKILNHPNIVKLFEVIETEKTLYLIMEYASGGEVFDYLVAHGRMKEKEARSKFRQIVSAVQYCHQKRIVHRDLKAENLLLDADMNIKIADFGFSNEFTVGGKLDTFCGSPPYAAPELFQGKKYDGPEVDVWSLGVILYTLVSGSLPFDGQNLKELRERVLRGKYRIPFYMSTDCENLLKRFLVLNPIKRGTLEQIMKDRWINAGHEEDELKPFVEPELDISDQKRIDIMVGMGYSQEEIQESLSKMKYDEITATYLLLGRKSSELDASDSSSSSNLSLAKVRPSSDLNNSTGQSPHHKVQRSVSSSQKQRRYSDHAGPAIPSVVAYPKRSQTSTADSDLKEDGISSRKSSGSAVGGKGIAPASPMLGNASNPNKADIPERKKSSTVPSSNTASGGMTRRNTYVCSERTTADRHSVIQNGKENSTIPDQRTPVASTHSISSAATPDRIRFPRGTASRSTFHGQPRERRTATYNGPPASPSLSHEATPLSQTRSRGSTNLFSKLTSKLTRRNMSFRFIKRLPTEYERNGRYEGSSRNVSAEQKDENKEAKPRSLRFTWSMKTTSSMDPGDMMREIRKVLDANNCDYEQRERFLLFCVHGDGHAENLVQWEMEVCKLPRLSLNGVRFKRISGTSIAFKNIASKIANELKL

[3] = biological target: 5'-AMP-activated protein kinase catalytic subunit alpha-2 (Homo sapiens, UniProt P54646); experiment: Inhibition of human AMPK using HMRSAMSGLHLVKRR as substrate in presence of ATP
Chain of 5'-AMP-activated protein kinase catalytic subunit alpha-2 (P54646 whole entry): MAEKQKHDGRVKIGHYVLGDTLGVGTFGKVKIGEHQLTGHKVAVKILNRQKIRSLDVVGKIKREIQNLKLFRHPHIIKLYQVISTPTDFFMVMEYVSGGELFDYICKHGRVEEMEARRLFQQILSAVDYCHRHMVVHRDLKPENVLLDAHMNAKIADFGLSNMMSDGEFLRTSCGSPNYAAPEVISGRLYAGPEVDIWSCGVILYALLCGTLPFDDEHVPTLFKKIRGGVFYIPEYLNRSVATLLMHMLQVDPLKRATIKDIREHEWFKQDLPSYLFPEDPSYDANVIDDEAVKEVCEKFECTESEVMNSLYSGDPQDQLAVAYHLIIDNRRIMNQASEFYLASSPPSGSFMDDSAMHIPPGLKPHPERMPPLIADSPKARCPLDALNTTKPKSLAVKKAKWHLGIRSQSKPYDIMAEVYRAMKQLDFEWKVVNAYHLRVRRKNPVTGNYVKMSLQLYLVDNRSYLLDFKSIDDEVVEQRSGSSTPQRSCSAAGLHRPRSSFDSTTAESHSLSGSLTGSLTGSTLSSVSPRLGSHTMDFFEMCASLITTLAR

[4] = biological target: Glycogen synthase kinase-3 beta (Homo sapiens, UniProt P49841); experiment: Inhibition of human GSK3beta using Poly Glut Tyr as substrate in presence of ATP
Chain of Glycogen synthase kinase-3 beta (P49841 whole entry): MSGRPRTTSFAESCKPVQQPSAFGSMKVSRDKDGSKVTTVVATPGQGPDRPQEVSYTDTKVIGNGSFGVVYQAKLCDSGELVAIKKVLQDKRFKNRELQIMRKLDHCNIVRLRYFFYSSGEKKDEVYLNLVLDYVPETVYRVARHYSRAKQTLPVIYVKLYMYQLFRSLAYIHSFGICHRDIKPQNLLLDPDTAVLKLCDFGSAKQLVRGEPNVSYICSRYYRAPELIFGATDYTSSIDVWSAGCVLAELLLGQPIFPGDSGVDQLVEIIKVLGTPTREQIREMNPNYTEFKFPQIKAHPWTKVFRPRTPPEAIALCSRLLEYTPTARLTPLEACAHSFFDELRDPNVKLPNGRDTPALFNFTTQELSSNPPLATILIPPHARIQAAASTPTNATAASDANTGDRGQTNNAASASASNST

[5] = biological target: T1, Tyrosine-protein kinase JAK3 (Homo sapiens, UniProt P52333); experiment: Inhibition of human JAK3 using MBP as substrate in presence of ATP
T1 sequence (P52333 whole entry): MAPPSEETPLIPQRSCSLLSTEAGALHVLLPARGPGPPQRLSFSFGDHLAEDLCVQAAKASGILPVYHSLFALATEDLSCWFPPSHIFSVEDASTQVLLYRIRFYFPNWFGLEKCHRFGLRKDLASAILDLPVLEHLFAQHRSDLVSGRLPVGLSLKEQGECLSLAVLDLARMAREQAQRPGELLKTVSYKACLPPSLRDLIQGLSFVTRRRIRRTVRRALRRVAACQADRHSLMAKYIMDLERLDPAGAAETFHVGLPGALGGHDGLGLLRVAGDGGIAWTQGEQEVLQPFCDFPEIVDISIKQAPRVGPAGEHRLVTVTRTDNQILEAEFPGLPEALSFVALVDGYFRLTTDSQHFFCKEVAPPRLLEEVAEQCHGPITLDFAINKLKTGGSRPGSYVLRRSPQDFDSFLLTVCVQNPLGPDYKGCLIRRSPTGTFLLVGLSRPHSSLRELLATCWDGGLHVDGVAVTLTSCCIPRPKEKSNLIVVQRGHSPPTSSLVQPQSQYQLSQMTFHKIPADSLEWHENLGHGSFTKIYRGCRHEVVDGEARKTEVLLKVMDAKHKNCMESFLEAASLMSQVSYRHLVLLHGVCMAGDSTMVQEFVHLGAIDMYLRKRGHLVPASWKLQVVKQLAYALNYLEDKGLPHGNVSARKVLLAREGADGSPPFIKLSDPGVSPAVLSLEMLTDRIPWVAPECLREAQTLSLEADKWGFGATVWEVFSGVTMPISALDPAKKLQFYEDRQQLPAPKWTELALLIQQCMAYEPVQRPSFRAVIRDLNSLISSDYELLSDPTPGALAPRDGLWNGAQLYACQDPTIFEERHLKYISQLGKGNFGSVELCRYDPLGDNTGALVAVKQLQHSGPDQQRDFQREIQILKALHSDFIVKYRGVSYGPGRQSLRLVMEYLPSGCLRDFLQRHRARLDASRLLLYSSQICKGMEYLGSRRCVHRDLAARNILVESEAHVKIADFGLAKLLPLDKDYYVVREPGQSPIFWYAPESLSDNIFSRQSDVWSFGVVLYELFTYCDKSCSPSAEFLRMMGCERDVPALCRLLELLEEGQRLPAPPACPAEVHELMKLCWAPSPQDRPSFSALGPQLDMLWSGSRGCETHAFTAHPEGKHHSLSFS

[6] = biological target: Serine/threonine-protein kinase pim-2 (Homo sapiens, UniProt Q9P1W9); experiment: Inhibition of PIM-2 (unknown origin)
Chain of Serine/threonine-protein kinase pim-2 (Q9P1W9 whole entry): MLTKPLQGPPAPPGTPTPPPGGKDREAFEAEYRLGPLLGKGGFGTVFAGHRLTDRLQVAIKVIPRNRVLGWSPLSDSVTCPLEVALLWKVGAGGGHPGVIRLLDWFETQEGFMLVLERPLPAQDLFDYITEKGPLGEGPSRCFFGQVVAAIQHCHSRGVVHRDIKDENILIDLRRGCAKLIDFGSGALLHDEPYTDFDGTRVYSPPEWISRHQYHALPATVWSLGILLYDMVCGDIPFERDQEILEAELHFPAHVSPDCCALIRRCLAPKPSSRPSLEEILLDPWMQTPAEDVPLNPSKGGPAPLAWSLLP

[7] = biological target: Serine/threonine-protein kinase N2 (Homo sapiens, UniProt Q16513); experiment: Inhibition of human PRK2 using ISDELMDATFADQEAKKK as substrate in presence of ATP
Chain of Serine/threonine-protein kinase N2 (Q16513 whole entry): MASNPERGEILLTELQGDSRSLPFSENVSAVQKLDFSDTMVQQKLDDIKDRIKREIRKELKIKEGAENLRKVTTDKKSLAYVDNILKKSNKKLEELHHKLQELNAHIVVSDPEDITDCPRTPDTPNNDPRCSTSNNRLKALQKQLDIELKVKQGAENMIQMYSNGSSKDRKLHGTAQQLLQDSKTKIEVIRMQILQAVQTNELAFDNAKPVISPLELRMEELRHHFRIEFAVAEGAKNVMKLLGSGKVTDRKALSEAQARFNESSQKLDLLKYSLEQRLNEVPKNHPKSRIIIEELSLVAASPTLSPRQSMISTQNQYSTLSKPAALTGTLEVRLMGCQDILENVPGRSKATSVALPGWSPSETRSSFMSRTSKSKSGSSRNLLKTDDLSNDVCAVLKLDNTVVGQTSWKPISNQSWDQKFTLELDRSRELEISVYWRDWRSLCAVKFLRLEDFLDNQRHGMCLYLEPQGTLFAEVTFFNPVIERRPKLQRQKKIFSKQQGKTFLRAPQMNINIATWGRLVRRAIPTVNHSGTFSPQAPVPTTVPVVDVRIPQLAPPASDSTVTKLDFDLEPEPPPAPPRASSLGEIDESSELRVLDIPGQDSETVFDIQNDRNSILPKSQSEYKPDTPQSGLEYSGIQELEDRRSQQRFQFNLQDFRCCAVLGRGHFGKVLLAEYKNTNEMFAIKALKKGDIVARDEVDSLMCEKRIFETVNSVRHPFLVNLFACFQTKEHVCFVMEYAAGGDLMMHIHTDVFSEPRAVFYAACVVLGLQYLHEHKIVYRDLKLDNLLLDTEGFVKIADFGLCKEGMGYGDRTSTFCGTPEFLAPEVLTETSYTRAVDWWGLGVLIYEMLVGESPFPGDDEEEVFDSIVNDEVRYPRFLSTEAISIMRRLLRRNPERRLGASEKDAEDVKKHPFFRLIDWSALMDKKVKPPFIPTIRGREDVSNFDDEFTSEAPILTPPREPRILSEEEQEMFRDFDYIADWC

Row | SMILES | EC50 (MOLM-13) [µM] | also measured
1 | CCCCCn1c2ccccc2c2c3[nH]ncc3c3c4ccccc4[nH]c3c21 | 15 | –
2 | OCCCCn1c2ccccc2c2c3[nH]ncc3c3c4ccccc4[nH]c3c21 | 4.1 | –
3 | CCCCn1c2ccccc2c2c3[nH]ncc3c3c4ccccc4[nH]c3c21 | > 5 | –
4 | NCCCCn1c2ccccc2c2c3[nH]ncc3c3c4ccccc4[nH]c3c21 | 2.7 | –
5 | CN(C)CCCn1c2ccccc2c2c3[nH]ncc3c3c4ccccc4[nH]c3c21 | 3.8 | –
6 | CCN(CC)CCCCn1c2ccccc2c2c3[nH]ncc3c3c4ccccc4[nH]c3c21 | 4.3 | –
7 | OC[C@H]1O[C@@H](n2c3ccccc3c3c4cn[nH]c4c4c5ccccc5[nH]c4c32)[C@H](O)[C@@H](O)[C@@H]1O | – | IC50 (HCT-116): 11 µM
8 | CCCCCn1c2ccccc2c2c3cn[nH]c3c3c4ccccc4[nH]c3c21 | > 5 | –
9 | CCN(CC)CCCn1c2ccccc2c2c3[nH]ncc3c3c4ccccc4[nH]c3c21 | > 4 | –
10 | CNCCCn1c2ccccc2c2c3cn[nH]c3c3c4ccccc4[nH]c3c21 | – | IC50 [1]: 0.045 µM; IC50 [2]: 0.024 µM; IC50 [3]: 0.0144 µM; IC50 [4]: 0.128 µM; IC50 [5]: 0.041 µM; IC50 [6]: 0.316 µM; IC50 [7]: 0.009 µM
11 | OC[C@H]1O[C@@H](n2c3ccccc3c3c4[nH]ncc4c4c5ccccc5[nH]c4c32)[C@H](O)[C@@H](O)[C@@H]1O | – | IC50 (HCT-116): 12 µM
12 | NCCCn1c2ccccc2c2c3[nH]ncc3c3c4ccccc4[nH]c3c21 | > 40 | –
